# According to patent US20230012570A1, “BICYCLIC COMPOUND USED AS SELECTIVE ANDROGEN RECEPTOR MODULATOR” (MEDSHINE DISCOVERY INC., priority 2019, published 2023):
# What was measured:
# CYP2C9 = molecular target: T1, CYP2C9 (Homo sapiens, UniProt P11712); assay: Human liver microsomal CYP inhibition experiment, CYP2C9; type: in vitro ADME
# T1 construct: Mixed human liver microsomes (HLM) were purchased from Corning Inc; tissue Corning Inc. or XenoTech, LLC. or other suppliers; host or cells: pooled human liver microsomes
# T1 sequence (P11712 whole entry): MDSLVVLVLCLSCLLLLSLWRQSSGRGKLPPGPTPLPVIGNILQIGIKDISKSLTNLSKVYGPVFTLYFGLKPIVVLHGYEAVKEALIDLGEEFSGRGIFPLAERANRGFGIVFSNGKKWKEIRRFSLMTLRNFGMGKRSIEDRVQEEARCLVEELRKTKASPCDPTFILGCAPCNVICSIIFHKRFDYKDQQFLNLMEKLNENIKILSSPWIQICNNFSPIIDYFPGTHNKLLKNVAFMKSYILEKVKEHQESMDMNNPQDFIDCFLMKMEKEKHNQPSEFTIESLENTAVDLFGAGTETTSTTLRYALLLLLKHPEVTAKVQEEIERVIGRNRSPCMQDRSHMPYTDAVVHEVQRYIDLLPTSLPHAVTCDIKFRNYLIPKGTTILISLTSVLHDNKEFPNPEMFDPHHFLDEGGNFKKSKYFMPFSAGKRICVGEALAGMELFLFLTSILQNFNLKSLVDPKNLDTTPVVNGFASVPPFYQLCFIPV
# Protocol: (§1) Experiment Embodiment 4: Human Liver Microsomal CYP Inhibition Experiment
# (§2) The inhibitory effects of the test compound 3A and VK5211 on the activities of human liver microsomal cytochrome P450 isozymes (CYP1A2, CYP2C9, CYP2C19, CYP2D6 and CYP3A4) were determined.
# (§3) Mixed human liver microsomes (HLM) were purchased from Corning Inc. (Steuben, New York, USA) or XenoTech, LLC. (Lenexa, Kans., USA) or other suppliers, and were stored at a temperature below −60° C. before use.
# (§4) First, the test compound (10.0 mM) was gradient diluted to prepare working solution (100×final concentration), and the concentrations of the working solution were: 5.00, 1.50, 0.500, 0.150, 0.0500, 0.0150, 0.00500 mM, and a working solution of each positive inhibitor of P450 isozymes (CYP1A2, CYP2C9, CYP2C19, CYP2D6, and CYP3A4) and a specific substrate mixture thereof (5 in 1) were prepared at the same time; human liver microsomes stored in a refrigerator at a temperature lower than −60° C. were put on ice to thaw, and when all the human liver microsomes were dissolved, the microsomes were diluted with potassium phosphate buffer (PB) to prepare a working solution of a certain concentration (0.253 mg/mL). […] The concentration of metabolites produced by the probe substrate in the sample was determined by liquid chromatography-tandem mass spectrometry (LC-MS/MS) method. […]
# CYP2D6 = molecular target: T2, CYP2D6 (Homo sapiens, UniProt P10635); assay: Human liver microsomal CYP inhibition experiment, CYP2D6; type: in vitro ADME
# T2 construct: Mixed human liver microsomes (HLM) were purchased from Corning Inc; tissue Corning Inc. or XenoTech, LLC. or other suppliers; host or cells: pooled human liver microsomes
# T2 sequence (P10635 whole entry): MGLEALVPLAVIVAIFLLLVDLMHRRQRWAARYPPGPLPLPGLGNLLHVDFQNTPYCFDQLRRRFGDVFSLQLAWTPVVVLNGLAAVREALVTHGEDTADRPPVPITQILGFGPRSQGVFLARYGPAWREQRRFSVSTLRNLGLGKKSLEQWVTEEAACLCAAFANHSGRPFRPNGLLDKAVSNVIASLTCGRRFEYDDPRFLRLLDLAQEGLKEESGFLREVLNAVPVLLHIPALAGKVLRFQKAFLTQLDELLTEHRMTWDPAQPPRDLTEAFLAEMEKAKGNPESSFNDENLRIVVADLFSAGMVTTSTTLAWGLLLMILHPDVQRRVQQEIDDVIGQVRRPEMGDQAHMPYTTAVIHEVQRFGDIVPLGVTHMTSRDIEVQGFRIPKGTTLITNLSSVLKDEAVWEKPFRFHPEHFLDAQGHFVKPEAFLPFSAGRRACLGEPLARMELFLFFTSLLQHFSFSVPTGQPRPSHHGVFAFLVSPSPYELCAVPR
# Protocol: as §1, §2, §3, §4
# [1] = test system: muscle growth model of female rats; assay: In vivo pharmacodynamic study for muscle growth in female rats; settings: female SD rats, 10 mg/kg oral, QD × 37 days
# From the text: Experimental Embodiment 3: In Vivo Pharmacodynamic Study of the Compounds of the Present Disclosure for Muscle Growth in Female Rats
# From 16 female SD rats, 12 were selected and randomly divided into 2 groups of 6 animals each according to their body weight, with 2 spare animals in each group; the vehicle was (5% Tween 80+90% polyethylene glycol 400+5% polyvinylpyrrolidone K30): 1% carboxymethyl cellulose=1:9 (v/v).
# The rats were acclimatized in the ecological feeding box for 1 week at approximately 2 months of age, and after the acclimatization period, the rats were divided equally into 2 groups (n=6) according to body weight, and the vehicle and compound 3A were administered by gavage, once a day, for 5 weeks, at which time the animals were euthanized, and the tissues (muscle tissue: levator anal muscle, vaginal smooth muscle and gastrocnemius; gonad-related tissue: clitoris) were collected by necropsy and weighed.
smiles,measurement,setting,value
"N#Cc1ccc(N2CC3CC3C2C(O)C(F)(F)F)cc1Cl (single isomer, unassigned) [Compound 3A]",IC50,CYP2C9,> 50 µM
same,IC50,CYP2D6,> 50 µM
same,abnormalities / tolerability of the animals,[1],no significant abnormalities
same,increase of animal body weight compared with the vehicle group,[1],20%
same,increase of animal muscle weight compared with the vehicle group,[1],34%
same,increase of clitoral weight compared with the vehicle group (gonad-related tissue),[1],19%
